Usually IC50 stands for the point on the concentration scale where inhibition reaches its midpoint.

The record followed here is patent publication US9718816B2, “1-phenoxy-3-(alkylamino)-propan-2-ol derivatives as CARM1 inhibitors and uses thereof” (Epizyme, Inc., priority 2013, dated 2017).

In the assay the target is T1, CARM1 (Homo sapiens, UniProt Q86X55).
T1 construct: Flag-CARM1-His; made in house; host or cells: HEK 293F cells infected with recombinant baculovirus (pFastBacMam)
T1 sequence (Q86X55 1-585 isoform Q86X55-1): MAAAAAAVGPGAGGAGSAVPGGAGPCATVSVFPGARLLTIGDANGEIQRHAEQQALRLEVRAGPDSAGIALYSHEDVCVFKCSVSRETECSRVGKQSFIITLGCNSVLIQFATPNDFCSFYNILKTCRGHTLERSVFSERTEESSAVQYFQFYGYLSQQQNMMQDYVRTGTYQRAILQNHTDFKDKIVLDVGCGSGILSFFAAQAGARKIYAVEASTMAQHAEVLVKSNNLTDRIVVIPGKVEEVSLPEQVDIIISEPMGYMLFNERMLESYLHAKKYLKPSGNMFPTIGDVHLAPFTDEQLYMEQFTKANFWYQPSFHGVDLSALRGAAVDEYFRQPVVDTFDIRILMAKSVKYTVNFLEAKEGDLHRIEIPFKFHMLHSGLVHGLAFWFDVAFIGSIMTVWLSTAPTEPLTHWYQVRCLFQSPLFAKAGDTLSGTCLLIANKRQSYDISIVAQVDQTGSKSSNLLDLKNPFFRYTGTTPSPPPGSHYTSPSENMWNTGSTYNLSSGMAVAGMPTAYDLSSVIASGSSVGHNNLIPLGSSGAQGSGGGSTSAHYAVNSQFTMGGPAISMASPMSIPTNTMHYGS
Description: CARM1 enzyme assay on peptide substrate (3H-SAM Flashplate). In kind it is biochemical. The settings on record: CARM1 0.25 nM, 3H-SAM 30 nM, peptide 250 nM, 30 min preincubation; read-out: Biochem IC50. The text has this: S-adenosylmethionine (SAM), S-adenosylhomocysteine (SAH), bicine, Tween20, dimethylsulfoxide (DMSO), bovine skin gelatin (BSG), sodium butyrate and Tris(2-carboxyethyl)phosphine hydrochloride solution (TCEP) were purchased from Sigma-Aldrich at the highest level of purity possible. ^3H-SAM was purchase from American Radiolabeled Chemicals with a specific activity of 80 Ci/mmol. 384-well streptavidin Flashplates were purchased from PerkinElmer.
Peptide representative of human histone H3 residues 16-30 was synthesized with an N-terminal linker-affinity tag motif and a C-terminal amide cap by 21^St Century Biochemicals. The peptide was purified by high-performance liquid chromatography (HPLC) to greater than 95% purity and confirmed by liquid chromatography mass spectrometry (LC-MS). The sequence was Biot-Ahx-[…]-amide and contained a monomethylated arginine at position 26 (SEQ ID NO.:1).
Human CARM1 (PRMT4) (NM_199141.1) transcript clone was amplified from an HEK 293 cDNA library, incorporating a flanking 5′ sequence encoding a FLAG tag ([…]) (SEQ ID NO.:2) fused directly to Ala 2 of CARM1 and 3′ sequence encoding a hexa His sequence ([…]) (SEQ ID NO.:3) fused directly to Ser 608. The gene sequence encoding isoform1 containing a deletion of amino acids 539-561 was amplified subsequently and subcloned into pFastBacMam (Viva Biotech). Protein Expression
Recombinant baculovirus were generated according to Bac-to-Bac kit instructions (Life Technologies). Protein over-expression was accomplished by infecting exponentially growing HEK 293F cell culture at 1.3×10^6 cell/ml with virus (MOI=10) in the presence of 8 mM sodium butyrate. Infections were carried out at 37° C. for 48 hours, harvested by centrifugation, and stored at −80° C. for purification.
Column was washed with 500 mM NaCl in buffer A and Flag-CARM1-His was eluted with 200 ug/ml FLAG peptide in buffer A. Pooled fractions were dialyzed in 20 mM Tris, 150 mM NaCl, 5% glycerol and 1 mM DTT, pH 7.8. The purity of recovered protein was 94.
General Procedure for CARM1 Enzyme Assays on Peptide Substrates
The assays were all performed in a buffer consisting of 20 mM Bicine (pH=7.6), 1 mM TCEP, 0.005% BSG, and 0.002% Tween 20, prepared on the day of use. Compounds in 100% DMSO (1 ul) were spotted into a polypropylene 384-well V-bottom plates (Greiner) using a Platemate Plus outfitted with a 384-channel head (Thermo Scientific). DMSO (1 ul) was added to Columns 11, 12, 23, 24, rows A-H for the maximum signal control and 1 ul of SAH, a known product and inhibitor of CARM1, was added to columns 11, 12, 23, 24, rows I-P for the minimum signal control. A cocktail (40 ul) containing the CARM1 enzyme was added by Multidrop Combi (Thermo-Fisher). The compounds were allowed to incubate with CARM1 for 30 min at room temperature, then a cocktail (10 ul) containing ^3H-SAM and peptide was added to initiate the reaction (final volume=51 ul). The final concentrations of the components were as follows: CARM1 was 0.25 nM, ^3H-SAM was 30 nM, peptide was 250 nM, SAH in the minimum signal control wells was 1 mM, and the DMSO concentration was 2%. The assays were stopped by the addition of non-radiolabeled SAM (10 ul) to a final concentration of 300 uM, which dilutes the ^3H-SAM to a level where its incorporation into the peptide substrate is no longer detectable. 50 ul of the reaction in the 384-well polypropylene plate was then transferred to a 384-well Flashplate and the biotinylated peptides were allowed to bind to the streptavidin surface for at least 1 hour before being washed once with 0.1% Tween20 in a Biotek ELx405 plate washer. The plates were then read in a PerkinElmer TopCount plate reader to measure the quantity of ^3H-labeled peptide bound to the Flashplate surface, measured as disintegrations per minute (dpm) or alternatively, referred to as counts per minute (cpm). […]
`CNCC(O)COc1cccc(-c2cc(NCCCCCN)c3cnn(C(C)C)c3n2)c1` (stereo not shown) [Example 32-1]: the IC50 was less than 100 nM.
To `CNCC(O)COc1cccc(-c2cc(N(C)c3ccccn3)c3cnn(C(C)C)c3n2)c1` (stereo not shown) [Example 33-1] belongs 100 to 1000 nM; to `CNCC(O)COc1cccc(-c2cc(NCc3ccccn3)c3cnn(C(C)C)c3n2)c1` (stereo not shown) [Example 34-1], 100 to 1000 nM; to `CC(C)n1ncc2c(NCc3cccc(O)c3)cc(-c3cccc(OCC(O)CN)c3)nc21` (stereo not shown) [Example 35-1], 100 to 1000 nM.
As for `CC(C)n1ncc2c(NS(=O)(=O)N(C)C)cc(-c3cccc(OCC(O)CN)c3)nc21` (stereo not shown) [Example 36-1], the figure is less than 100 nM; as for `Cc1c(CNc2cc(-c3cccc(OCC(O)CN)c3)nc3c2cnn3C(C)C)cnn1C` (stereo not shown) [Example 37-1], 3000 to 10000 nM; as for `CC(C)n1ncc2c(N[C@H]3CO[C@@H]4OCC[C@@H]43)cc(-c3cccc(OCC(O)CN)c3)nc21` (stereo partly shown) [Example 38-1], less than 100 nM.
To `CNCC(O)COc1cccc(-c2cc(N(C)C3CCOCC3)c3cnn(C(C)C)c3n2)c1` (stereo not shown) [Example 40-1] belongs 100 to 1000 nM.
With `CNCC(O)COc1cccc(-c2cc(NCC3CCOCC3)c3cnn(C(C)C)c3n2)c1` (stereo not shown) [Example 41-1], the IC50 is less than 100 nM.
As for `CC(C)n1ncc2c(N(C)CC3CCOCC3)cc(-c3cccc(OCC(O)CN)c3)nc21` (stereo not shown) [Example 42-1], the figure is less than 100 nM; as for `CNCC(O)COc1cccc(-c2cc(NCCCCCCN)c3cnn(C(C)C)c3n2)c1` (stereo not shown) [Example 43-1], 100 to 1000 nM; as for `CNCC(O)COc1cccc(-c2cc(N(C)Cc3ccccn3)c3cnn(C(C)C)c3n2)c1` (stereo not shown) [Example 44-1], 100 to 1000 nM.
In the case of `CNCC(O)COc1cccc(-c2cc(NS(=O)(=O)N(C)C)c3cnn(C(C)C)c3n2)c1` (stereo not shown) [Example 45-1], the IC50 is less than 100 nM.
As for `CNCC(O)COc1cccc(-c2cc(NCc3cnn(C)c3C)c3cnn(C(C)C)c3n2)c1` (stereo not shown) [Example 46-1], the figure is less than 100 nM; as for `CNCC(O)COc1cccc(-c2cc(N[C@H]3CO[C@@H]4OCC[C@@H]43)c3cnn(C(C)C)c3n2)c1` (stereo partly shown) [Example 47-1], 100 to 1000 nM; as for `CNCC(O)COc1cccc(-c2cc(N(C)CC3CCOCC3)c3cnn(C(C)C)c3n2)c1` (stereo not shown) [Example 48-1], less than 100 nM.
As for `CC(C)n1ncc2c(NC(=O)NC3CCOCC3)cc(-c3cccc(OCC(O)CN)c3)nc21` (stereo not shown) [Example 49-1], the IC50 fell in the range of 100 to 1000 nM.
To `CC(C)n1ncc2c(NCc3cnc4ccccn34)cc(-c3cccc(OCC(O)CN)c3)nc21` (stereo not shown) [Example 50-1] belongs less than 100 nM.
As for `CC(C)n1ncc2c(NC(=O)OCc3ccccc3)cc(-c3cccc(OCC(O)CN)c3)nc21` (stereo not shown) [Example 51-1], the figure is less than 100 nM; as for `CNCC(O)COc1cccc(-c2cc(N3CCC(C(=O)OC)CC3)c3cnn(C(C)C)c3n2)c1` (stereo not shown) [Example 52-1], less than 100 nM.
To `CNCC(O)COc1cccc(-c2cc(NCc3cnc4ccccn34)c3cnn(C(C)C)c3n2)c1` (stereo not shown) [Example 53-1] belongs less than 100 nM; to `CNCC(O)COc1cccc(-c2cc(NC(=O)OCc3ccccc3)c3cnn(C(C)C)c3n2)c1` (stereo not shown) [Example 54-1], 100 to 1000 nM.
As to `COc1nc(C)cc(C)c1CNc1cc(-c2cccc(OCC(O)CN)c2)nc2c1cnn2C(C)C` (stereo not shown) [Example 55-1], the IC50 is less than 100 nM.
As for `CNCC(O)COc1cccc(-c2cc(NCCNC(=O)c3cccnc3)c3cnn(C(C)C)c3n2)c1` (stereo not shown) [Example 56-1], the figure is 100 to 1000 nM; as for `CNCC(O)COc1cccc(-c2cc(NCc3c(C)cc(C)nc3OC)c3cnn(C(C)C)c3n2)c1` (stereo not shown) [Example 57-1], 100 to 1000 nM.
As for `CNCC(O)COc1cccc(-c2cc(NCCNC(=O)c3ccn(C)n3)c3cnn(C(C)C)c3n2)c1` (stereo not shown) [Example 58-1], the IC50 is 100 to 1000 nM.
To `CNCC(O)COc1cccc(-c2cc(NCCCNC(=O)c3cccnc3)c3cnn(C(C)C)c3n2)c1` (stereo not shown) [Example 59-1] belongs 100 to 1000 nM; to `CNCC(O)COc1cccc(-c2cc(NCCCNC(=O)c3ccn(C)n3)c3cnn(C(C)C)c3n2)c1` (stereo not shown) [Example 60-1], 100 to 1000 nM; to `CNCC(O)COc1cccc(-c2cc(NCCCCNC(=O)c3cccnc3)c3cnn(C(C)C)c3n2)c1` (stereo not shown) [Example 61-1], 100 to 1000 nM.
As for `CNCC(O)COc1cccc(-c2cc(NCCCCNC(=O)c3ccn(C)n3)c3cnn(C(C)C)c3n2)c1` (stereo not shown) [Example 62-1], the figure is 100 to 1000 nM; as for `CNCC(O)COc1cccc(-c2cc(NCCCCCNC(=O)c3cccnc3)c3cnn(C(C)C)c3n2)c1` (stereo not shown) [Example 63-1], 100 to 1000 nM; as for `CNCC(O)COc1cccc(-c2cc(NCCCCCNC(=O)c3ccn(C)n3)c3cnn(C(C)C)c3n2)c1` (stereo not shown) [Example 64-1], less than 100 nM.
As for `CNCC(O)COc1cccc(-c2cc(NCCCCCCNC(=O)c3cccnc3)c3cnn(C(C)C)c3n2)c1` (stereo not shown) [Example 65-1], the figure is 100 to 1000 nM; as for `CNCC(O)COc1cccc(-c2cc(NCCCCCCNC(=O)c3ccn(C)n3)c3cnn(C(C)C)c3n2)c1` (stereo not shown) [Example 66-1], 100 to 1000 nM.
